Molecular target: human enteropeptidase (hEP), enterokinase (Homo sapiens, UniProt P98073)
Assay: cryo-EM structure of inhibited hEP-core ([…] Å); SPR affinity; enzyme activity inhibition
Format: binding
Parameters: gene TMPRSS15; hEP-core resolved; SPR: commercial hEP

Chain of human enteropeptidase (hEP), enterokinase (P98073 182-784): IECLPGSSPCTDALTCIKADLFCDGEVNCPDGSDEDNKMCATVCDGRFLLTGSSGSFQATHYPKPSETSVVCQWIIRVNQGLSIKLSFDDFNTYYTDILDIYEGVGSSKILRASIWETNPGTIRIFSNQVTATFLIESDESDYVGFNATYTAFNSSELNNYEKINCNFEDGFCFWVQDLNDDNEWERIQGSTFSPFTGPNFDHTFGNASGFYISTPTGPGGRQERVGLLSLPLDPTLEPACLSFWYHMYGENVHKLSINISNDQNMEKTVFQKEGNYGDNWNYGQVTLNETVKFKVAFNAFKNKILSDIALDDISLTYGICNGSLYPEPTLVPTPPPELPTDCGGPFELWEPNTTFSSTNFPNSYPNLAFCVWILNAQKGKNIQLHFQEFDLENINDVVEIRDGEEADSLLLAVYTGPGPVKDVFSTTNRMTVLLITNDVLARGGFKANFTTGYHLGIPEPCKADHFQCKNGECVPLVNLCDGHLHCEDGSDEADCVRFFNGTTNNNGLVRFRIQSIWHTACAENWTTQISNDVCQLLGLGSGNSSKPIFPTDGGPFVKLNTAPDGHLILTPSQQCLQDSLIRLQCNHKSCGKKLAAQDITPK
Chain of human enteropeptidase (hEP), enterokinase (P98073 785-1019): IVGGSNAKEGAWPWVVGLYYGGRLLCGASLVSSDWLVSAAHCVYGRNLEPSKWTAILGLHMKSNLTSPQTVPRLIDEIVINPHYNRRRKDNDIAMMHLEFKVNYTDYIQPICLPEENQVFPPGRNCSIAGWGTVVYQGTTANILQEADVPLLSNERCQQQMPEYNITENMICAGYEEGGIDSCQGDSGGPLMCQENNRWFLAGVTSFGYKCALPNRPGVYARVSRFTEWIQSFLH

## N=C(N)c1ccc2cc(OC(=O)c3ccc(N=C(N)N)cc3)ccc2c1 [nafamostat]
  Kd: 95.1 µM

Source: paper PMC9663175, “Cryo-EM structures reveal the activation and substrate recognition mechanism of human enteropeptidase” (Nature Communications, 2022)
